Data reported in US20260355196A1, “INHIBITORS AND DEGRADERS OF PIP4K PROTEIN” (Larkspur Biosciences, Inc., priority 2023, published 2026).

The molecules below were run against T1, PIP4K2C (Homo sapiens, UniProt Q8TBX8) (assay: HiBiT PIP4K2C degradation assay in MOLT-4 cells (endogenous PIP4K2C C-terminally tagged with HiBiT)). Conditions: 6 hours of incubation time, rather than 24 hours; MOLT-4, top concentration 10 micromolar; read-out: HiBIT-degradation MOLT4 PIP4k2C DC50 (6 hours, marked *).
T1 sequence (Q8TBX8 1-421): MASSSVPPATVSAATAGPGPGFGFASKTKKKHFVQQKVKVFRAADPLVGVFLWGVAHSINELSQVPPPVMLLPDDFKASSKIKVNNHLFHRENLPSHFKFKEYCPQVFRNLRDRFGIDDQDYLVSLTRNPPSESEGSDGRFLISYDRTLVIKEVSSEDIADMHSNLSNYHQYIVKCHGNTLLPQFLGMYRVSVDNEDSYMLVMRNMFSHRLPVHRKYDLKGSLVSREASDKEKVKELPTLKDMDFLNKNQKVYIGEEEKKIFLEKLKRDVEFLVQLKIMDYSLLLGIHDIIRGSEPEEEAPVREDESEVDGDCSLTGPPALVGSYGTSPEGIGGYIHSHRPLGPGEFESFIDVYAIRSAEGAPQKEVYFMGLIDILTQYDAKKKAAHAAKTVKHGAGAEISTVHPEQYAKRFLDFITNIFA
Format: cell-based
Parameters: untagged in primary human PBMCs and monocyte-derived dendritic cells
Method in brief: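 MOLT-4 cells with endogenous PIP4K2C C-terminally HiBiT-tagged by CRISPR were treated with a 10-point, 3-fold dilution series from 10 micromolar, in duplicate, for 24 h or 6 h at 37 C. Remaining tagged protein read by HiBiT lytic luminescence; DC50 from Hill-equation fit.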

Row | Structure (SMILES) | DC50
1 | O=C1CCC(Nc2ccc(N3CCC(N4CCC(C(=O)N[C@H]5CC[C@H](Nc6ncc(F)c(-c7cccc(-c8ccc[nH]c8=O)c7)n6)CC5)CC4)CC3)c(F)c2)C(=O)N1 (stereo partly drawn) [Compound 429, trans-1′-(4-((2,6-dioxopiperidin-3-yl)amino)-2-fluorophenyl)-N-(4-((5-fluoro-4-(3-(2-oxo-1,2-dihydropyridin-3-yl)phenyl)pyrimidin-2-yl)amino)cyclohexyl)-[1,4′-bipiperidine]-4-carboxamide] | < 500 nM
2 | O=C1CCC(Nc2ccc(N3CCN(C[C@H]4CC[C@H](CC(=O)N[C@H]5CC[C@H](Nc6ncc(F)c(-c7cccc(N8CCOCC8=O)c7)n6)CC5)CC4)CC3)c(F)c2)C(=O)N1 (stereo partly drawn) [Compound 562, trans-2-((1r,4R)-4-((4-(4-((2,6-dioxopiperidin-3-yl)amino)-2-fluorophenyl)piperazin-1-yl)methyl)cyclohexyl)-N-((1r,4R)-4-((5-fluoro-4-(3-(3-oxomorpholino)phenyl)pyrimidin-2-yl)amino)cyclohexyl)acetamide] | < 500 nM
3 | O=C1CCC(Nc2ccc(C3CCN([C@H]4CC[C@H](NC(=O)[C@H]5CC[C@H](Nc6ncc(F)c(-c7cccc(N8CCCCC8=O)c7)n6)CC5)CC4)CC3)c(F)c2)C(=O)N1 (stereo partly drawn) [Compound 565, trans-N-(trans-4-(4-(4-((2,6-dioxopiperidin-3-yl)amino)-2-fluorophenyl)piperidin-1-yl)cyclohexyl)-4-((5-fluoro-4-(3-(2-oxopiperidin-1-yl)phenyl)pyrimidin-2-yl)amino)cyclohexane-1-carboxamide] | < 500 nM
4 | O=C1CC[C@@H](Nc2ccc(N3CCN([C@H]4CC[C@H](C(=O)N[C@H]5CC[C@H](Nc6ncc(F)c(-c7cccc(-c8ccc[nH]c8=O)c7)n6)CC5)CC4)CC3)c(F)c2)C(=O)N1 [Compound 544, trans-4-(4-(4-(((R)-2,6-dioxopiperidin-3-yl)amino)-2-fluorophenyl)piperazin-1-yl)-N-((trans)-4-((5-fluoro-4-(3-(2-oxo-1,2-dihydropyridin-3-yl)phenyl)pyrimidin-2-yl)amino)cyclohexyl)cyclohexane-1-carboxamide] | < 500 nM
5 | O=C1CCC(Nc2ccc(C3CCN(C4CC5(C4)CN(C(=O)O[C@H]4CC[C@H](Nc6ncc(F)c(-c7cccc(-n8ccccc8=O)c7)n6)CC4)C5)CC3)c(F)c2)C(=O)N1 (stereo partly drawn) [Compound 666, (trans)-4-((5-fluoro-4-(3-(2-oxopyridin-1 (2H)-yl)phenyl)pyrimidin-2-yl)amino)cyclohexyl 6-(4-(4-((2,6-dioxopiperidin-3-yl)amino)-2-fluorophenyl)piperidin-1-yl)-2-azaspiro[3.3]heptane-2-carboxylate] | < 500 nM
6 | Cn1nc(C2CCC(=O)NC2=O)c2ccc(C3CCN(CCN4CCC(C(=O)N[C@H]5CC[C@H](Nc6ncc(F)c(-c7cccc(-n8ccccc8=O)c7)n6)CC5)CC4)CC3)cc21 (mixture of isomers) [Compound 534, 1-(2-(4-(3-(2,6-dioxopiperidin-3-yl)-1-methyl-1H-indazol-6-yl)piperidin-1-yl)ethyl)-N-((1r,4r)-4-((5-fluoro-4-(3-(2-oxopyridin-1(2H)-yl)phenyl)pyrimidin-2-yl)amino)cyclohexyl)piperidine-4-carboxamide] | < 500 nM

Continued, values first:

Row | DC50 | Structure (SMILES)
7 | < 500 nM | O=C1CCC(Nc2ccc(C3CCN([C@H]4CC[C@H](C(=O)N[C@H]5CC[C@H](Nc6ncc(F)c(-c7ccnc(C8(O)CCC8)c7)n6)CC5)CC4)CC3)c(F)c2)C(=O)N1 (stereo partly drawn) [Compound 569, trans-(1r,4R)-4-(4-(4-((2,6-dioxopiperidin-3-yl)amino)-2-fluorophenyl)piperidin-1-yl)-N-((1r,4R)-4-((5-fluoro-4-(2-(1-hydroxycyclobutyl)pyridin-4-yl)pyrimidin-2-yl)amino)cyclohexyl)cyclohexane-1-carboxamide]
8 | < 500 nM | O=C1CCC(Nc2ccc(C3CCN(CC4CCN(C(=O)[C@H]5CC[C@H](Nc6ncc(F)c(-c7cccc(N8CCCCC8=O)c7)n6)CC5)CC4)CC3)c(F)c2)C(=O)N1 (stereo partly drawn) [Compound 394, trans-3-((3-fluoro-4-(1-((1-(4-((5-fluoro-4-(3-(2-oxopiperidin-1-yl)phenyl)pyrimidin-2-yl)amino)cyclohexane-1-carbonyl)piperidin-4-yl)methyl)piperidin-4-yl)phenyl)amino)piperidine-2,6-dione]
9 | < 500 nM | O=C1CCC(n2c(=O)oc3cc(N4CCN(CC5CCN(C(=O)[C@H]6CC[C@H](Nc7ncc(F)c(-c8cccc(-c9ccc[nH]c9=O)c8)n7)CC6)CC5)CC4)ccc32)C(=O)N1 (stereo partly drawn) [Compound 398, trans-3-(6-(4-((1-(4-((5-fluoro-4-(3-(2-oxo-1,2-dihydropyridin-3-yl)phenyl)pyrimidin-2-yl)amino)cyclohexane-1-carbonyl)piperidin-4-yl)methyl)piperazin-1-yl)-2-oxobenzo[d]oxazol-3 (2H)-yl)piperidine-2,6-dione]
10 | < 500 nM | Cn1nc(N2CCC(=O)NC2=O)c2cc(F)c(C3CCN([C@H]4CC[C@H](C(=O)N[C@H]5CC[C@H](Nc6ncc(F)c(-c7cccc(-n8ccccc8=O)c7)n6)CC5)CC4)CC3)cc21 [Compound 512, trans-4-(4-(3-(2,4-dioxotetrahydropyrimidin-1(2H)-yl)-5-fluoro-1-methyl-1H-indazol-6-yl)piperidin-1-yl)-N-(trans-4-((5-fluoro-4-(3-(2-oxopyridin-1(2H)-yl)phenyl)pyrimidin-2-yl)amino)cyclohexyl)cyclohexane-1-carboxamide]
11 | < 500 nM | O=C1CCC(Nc2ccc(C3CCN(CC4(F)CCN(C(=O)[C@H]5CC[C@H](Nc6ncc(F)c(-c7cccc(-n8ccccc8=O)c7)n6)CC5)CC4)CC3)c(F)c2)C(=O)N1 (stereo partly drawn) [Compound 487, trans-3-((3-fluoro-4-(1-((4-fluoro-1-(4-((5-fluoro-4-(3-(2-oxopyridin-1(2H)-yl)phenyl)pyrimidin-2-yl)amino)cyclohexane-1-carbonyl)piperidin-4-yl)methyl)piperidin-4-yl)phenyl)amino)piperidine-2,6-dione]
12 | < 500 nM | O=C1CCC(Nc2ccc(C3CCN(C4CCN(C(=O)O[C@H]5CC[C@H](Nc6ncc(F)c(-c7cccc(N8CCCCC8=O)c7)n6)CC5)CC4)CC3)c(F)c2)C(=O)N1 (stereo partly drawn) [Compound 678, trans-4-((5-fluoro-4-(3-(2-oxopiperidin-1-yl)phenyl)pyrimidin-2-yl)amino)cyclohexyl 4-(4-((2,6-dioxopiperidin-3-yl)amino)-2-fluorophenyl)-[1,4′-bipiperidine]-1′-carboxylate]

Same assay, conditions: 24 hours incubation, MOLT-4, top concentration 10 micromolar; read-out: HiBIT-degradation MOLT4 PIP4k2C 24 hours DC50

Row | Structure (SMILES) | DC50
13 | O=C1CCC(N2Cc3cc(C4CCN(CCN5CCN(C(=O)[C@H]6CCC[C@@H](Nc7ncc(Cl)c(-c8cccc(-c9ccccc9)c8)n7)C6)CC5)CC4)ccc3C2=O)C(=O)N1 (relative stereo) [Compound 61, cis-3-(5-(1-(2-(4-(3-((4-([1,1′-biphenyl]-3-yl)-5-chloropyrimidin-2-yl)amino)cyclohexane-1-carbonyl)piperazin-1-yl)ethyl)piperidin-4-yl)-1-oxoisoindolin-2-yl)piperidine-2,6-dione] | < 500 nM
14 | O=C1CCC(n2c(=O)oc3cc(C4CCN(CC5CCN(C(=O)CN6CCC(Nc7ncc(F)c(-c8cccc(-c9ccccc9)c8)n7)CC6=O)CC5)CC4)ccc32)C(=O)N1 (centres unmarked) [Compound 366, 3-(6-(1-((1-(2-(4-((4-([1,1′-biphenyl]-3-yl)-5-fluoropyrimidin-2-yl)amino)-2-oxopiperidin-1-yl)acetyl)piperidin-4-yl)methyl)piperidin-4-yl)-2-oxobenzo[d]oxazol-3 (2H)-yl)piperidine-2,6-dione] | < 500 nM
15 | Cn1c(=O)n(C2CCC(=O)NC2=O)c2ccc(C3CCN(CC4CCN(CC(=O)N5CCC(Nc6ncc(Cl)c(-c7cccc(-c8ccc(F)cc8)c7)n6)CC5)CC4)CC3)cc21 (centres unmarked) [Compound 287, 3-(5-(1-((1-(2-(4-((5-chloro-4-(4′-fluoro-[1,1′-biphenyl]-3-yl)pyrimidin-2-yl)amino)piperidin-1-yl)-2-oxoethyl)piperidin-4-yl)methyl)piperidin-4-yl)-3-methyl-2-oxo-2,3-dihydro-1H-benzo[d]imidazol-1-yl)piperidine-2,6-dione] | < 500 nM

Now from value to molecule:

Row | DC50 | Structure (SMILES)
16 | < 500 nM | Cn1c(=O)n(C2CCC(=O)NC2=O)c2ccc(C3CCN(CCC4CCN(C(=O)[C@H]5CCC[C@@H](Nc6ncc(Cl)c(-c7cccc(-c8ccc(F)cc8)c7)n6)C5)CC4)CC3)cc21 (relative stereo) [Compound 279, cis-3-(5-(1-(2-(1-(3-((5-chloro-4-(4′-fluoro-[1,1′-biphenyl]-3-yl)pyrimidin-2-yl)amino)cyclohexane-1-carbonyl)piperidin-4-yl)ethyl)piperidin-4-yl)-3-methyl-2-oxo-2,3-dihydro-1H-benzo[d]imidazol-1-yl)piperidine-2,6-dione]
17 | < 500 nM | O=C1CCC(n2c(=O)oc3cc(C4CCN(CC5CCN(CC(=O)N[C@H]6CC[C@H](Nc7ncc(Cl)c(-c8cccc(-n9ccccc9=O)c8)n7)CC6)CC5)CC4)ccc32)C(=O)N1 (stereo partly drawn) [Compound 369, trans-N-(4-((5-chloro-4-(3-(2-oxopyridin-1(2H)-yl)phenyl)pyrimidin-2-yl)amino)cyclohexyl)-2-(4-((4-(3-(2,6-dioxopiperidin-3-yl)-2-oxo-2,3-dihydrobenzo[d]oxazol-6-yl)piperidin-1-yl)methyl)piperidin-1-yl)acetamide]
